Assay results from article PMC6264390, “Design, Synthesis and Structure-activity Studies of Rhodanine Derivatives as HIV-1 Integrase Inhibitors” (Molecules, 2010).
Where two headings read alike, the source gives them in different places.

Key:
HIV-1 IN = molecular target: T1, HIV-1 IN (Human immunodeficiency virus type 1 group M subtype B, UniProt P12497); test: In vitro IN inhibition assay (3’-processing and strand transfer); format: biochemical; conditions: for IC50: Mn2+ cofactor (7.5 mM MnCl2)
T1 construct: pre-incubated with purified recombinant IN (at a final concentration of 200 nM); made in house
Experimental: (§1) All compounds were dissolved in DMSO to a final stock concentration of 10 mM and stored at −20 °C. Initial screening for IN inhibitory effect was done at 100 μM and dilutions were made in DMSO. Compounds showing at least 50% inhibition at 100 μM were selected for IC50 determinations. γ-[^32P]-ATP was purchased from Perkin Elmer (Waltham, MA, USA). The expression system for wild-type IN was a generous gift of Dr. Robert Craigie, Laboratory of Molecular Biology, NIDDK, NIH (Bethesda, MD, USA). His-tagged APE1 was purified from an expression system kindly provided by Dr. Tom Curran, Department of Developmental Neurobiology, St. Jude Children’s Research Hospital (Memphis, TN, USA).
(§2) 21-mer oligonucleotides used in IN inhibition assay [21top (5’-[…]-3’) and 21bot (5’-ACTGCTAGAGATTTTCCA CAC-3’)] were purchased from Integrated DNA Technologies (Coralville, IA, USA) and purified by UV shadowing on polyacrylamide gel. The oligonucleotides used in APE1 inhibition assay [top strand: 5′-ATTTCACCGGTACG(F)TCTAGAATC CG-3′ containing the tetrahydrofuran synthetic abasic residue (F), and bottom strand: 3′-TAAAGTGG CCATGC(C)AGATCTTAGGC-5′] were purchased from The Midland Certified Reagent Company (Midland, TX, USA). To analyze the extent of 3’-processing and strand transfer with 5’-end labeled substrates, 21top was 5’-end labeled using T4 polynucleotide kinase (Epicentre, Madison, WI, USA) and [γ-^32P]-ATP (Perkin Elmer, Waltham, MA, USA). The kinase was heat-inactivated at 95 °C and 21bot was added in […]. The reaction mixture was allowed to cool slowly to room temperature, and purified through a spin-25 minicolumn (USA Scientific, Ocala, FL, USA) to separate annealed double-stranded oligonucleotide from unincorporated material. The oligonucleotides used in the APE1 inhibition assay were labeled using a similar protocol.
To determine the extent of 3’-processing and strand transfer, the test compounds, diluted in DMSO, were pre-incubated with purified recombinant IN (at a final concentration of 200 nM) in the reaction buffer [50 mM NaCl, 1 mM HEPES (pH 7.5), 50 μM EDTA, 50 μM dithiothreitol, 10% glycerol (w/v), 7.5 mM MnCl2, 0.1 mg mL–1 bovine serum albumin, 10 mM 2-mercaptoethanol, 10% dimethyl sulfoxide, and 25 mM MOPS (pH 7.2)] at 30 °C for 30 min. For Mg^2+ assay, 7.5 mM MgCl2 was substituted for MnCl2 and an optimal concentration of PEG was included in the reaction buffer. Following the pre-incubation, 20 nM of the 5’-end ^32P-labeled linear oligonucleotide substrate was added to the reaction mixture and incubated for an additional 1 h. Reactions were quenched by addition of 50X loading dye (98% deionized formamide, 10 mM EDTA, 0.025% xylene cyanol, and 0.025 % bromophenol blue). An aliquot was subjected to electrophoresis on a denaturing polyacrylamide gel (0.09 M tris–borate, pH 8.3, 2 mM EDTA, 20% acrylamide, 8M urea). Gels were dried under vacuum, exposed in a PhosphorImager cassette and visualized with a Typhoon 8610 Variable Mode Imager (Amersham Biosciences). Quantification was done with Image Quant 5.2 software. Percent inhibition (%I) was calculated using the following equation: %I = 100 × [1 − (D − C) / (N − C)] where C, N, and D are the fractions of 21-mer substrate converted into 19-mer (product of 3’-processing) or strand-transfer products for DNA alone, DNA plus IN, and DNA, IN plus test compound, respectively. IC50 values were determined by plotting the logarithm of test compound concentrations as a function of %I to obtain the concentration that produced 50% inhibition.

[1] = molecular target: T2, human apurinic/apyrimidinic endonuclease 1 (APE1) (Homo sapiens, UniProt P27695); test: APE1 inhibition assay; format: biochemical; conditions: read-out: Inhibition of APE1 catalytic activity IC50
T2 construct: His; made in house
Experimental: as §1, §2
APE1 inhibition assay was performed as previously described. To determine the extent of endonucleolytic cleavage of the abasic residue, the test compounds, diluted in DMSO, were preincubated with recombinant APE1 at a final concentration of 0.05 nM in the reaction buffer [50 mM NaCl, 1 mM HEPES, pH 7.5, 50 μM EDTA, 50 μM dithiothreitol, 10% glycerol (w/v), 7.5 mM MnCl2, 0.1 mg mL‑1 bovine serum albumin, 10 mM 2-mercaptoethanol, 10% DMSO, and 25 mM MOPS, pH 7.2] at 30 °C for 10 min. Following preincubation, 200 nM of the 5′-end ^32P-labeled linear oligonucleotide substrate was added, and incubated for an additional 10 minutes. Reactions were quenched by the addition of an equal volume (16 μL) of loading dye (98% deionized formamide, 10 mM EDTA, 0.025% xylene cyanol, and 0.025% bromophenol blue). An aliquot (5 μL) was electrophoresed on a denaturing 20% polyacrylamide gel (0.09 M tris-borate pH 8.3, 2 mM EDTA, 20% acrylamide, 8 M urea). The gels were dried, exposed in a PhosphorImager cassette and analyzed using a Typhoon 8610 Variable Mode Imager (Amersham Biosciences). Quantification of enzyme inhibition was done using Image Quant 5.2 software. The percent inhibition (% I) was calculated using the following equation: %I = 100 × [1 − (D − C) / (N − C)] where C, N, and D are the fractions of 26-mer substrate converted to 13-mer incision products (or integration products) for DNA alone, DNA plus APE1, and DNA, APE1 plus test compound, respectively. IC50 values were determined by plotting the logarithm of compound concentration as a function of %I to obtain the concentration that produced 50% inhibition. An optimum concentration of APE1 enzyme, at which there is complete conversion of the synthetic abasic-site containing oligonucleotide substrate to its cleaved product without subsequent exonuclease activity, was used in the assay.

[2] = read-out: Inhibition of IN catalytic activity IC50, 3’-Processing
[3] = read-out: Inhibition of IN catalytic activity IC50, Strand Transfer

T2 sequence (P27695 whole entry): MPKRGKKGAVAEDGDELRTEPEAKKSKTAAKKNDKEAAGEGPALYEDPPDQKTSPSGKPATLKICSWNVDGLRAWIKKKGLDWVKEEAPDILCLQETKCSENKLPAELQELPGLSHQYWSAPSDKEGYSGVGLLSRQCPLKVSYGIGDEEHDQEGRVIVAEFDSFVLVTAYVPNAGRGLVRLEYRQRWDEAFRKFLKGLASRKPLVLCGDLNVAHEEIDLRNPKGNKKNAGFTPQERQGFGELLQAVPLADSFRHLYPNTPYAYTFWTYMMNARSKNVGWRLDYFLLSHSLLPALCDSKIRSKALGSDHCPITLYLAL

Row | Structure (SMILES) | IC50 (HIV-1 IN; [2]) [µM] | IC50 (HIV-1 IN; [3]) [µM] | IC50 [1] [µM] | melting point [°C] | IN inhibition (in words) (HIV-1 IN; highest concentration tested 100 μM) | decrease in potency relative to 53 (HIV-1 IN; IN inhibition, trimethoxy versus p-hydroxyl in ring A) [fold]
1 | CCN(CC)c1ccc(C=C2SC(=S)N(NC(=S)C(=O)Nc3cc(OC)c(OC)c(OC)c3)C2=O)c(O)c1 [Compound 33, 2-({5-[4-(Diethylamino)-2-hydroxybenzylidene]-4-oxo-2-thioxo-1,3-thiazolidin-3-yl}amino)-2-thioxo-N-(3,4,5-trimethoxyphenyl)acetamide] | > 100 | > 100 | > 100 | 210 to 211 |  | 
2 | COc1cc(NC(=O)C(=S)NN2C(=O)C(=Cc3cc(N=Nc4ccccc4)ccc3O)SC2=S)cc(OC)c1OC [Compound 34, 2-[(5-{2-Hydroxy-5-[phenyldiazenyl]benzylidene}-4-oxo-2-thioxo-1,3-thiazolidin-3-yl)amino]-2-thioxo-N-(3,4,5-trimethoxyphenyl)acetamide] | 33 ± 19 | 26 ± 14 | > 100 | 149 to 150 |  | 
3 | COc1cc(NC(=O)C(=S)NN2C(=O)/C(=C\c3ccc(O)c(C(=O)O)c3)SC2=S)cc(OC)c1OC [Compound 35] | 45 ± 24 | 61 ± 11 | > 100 | 239 to 240 | only a moderate effect | 
4 | COc1cc(NC(=O)C(=S)NN2C(=O)C(=Cc3cc(Cl)cc(Cl)c3O)SC2=S)cc(OC)c1OC [Compound 36, 2-{[5-(3,5-Dichloro-2-hydroxybenzylidene)-4-oxo-2-thioxo-1,3-thiazolidin-3-yl]amino}-2-thioxo-N-(3,4,5-trimethoxyphenyl)acetamide] | 46 ± 5 | > 100 | > 100 | 215 to 216 |  | 
5 | COc1cc(NC(=O)C(=S)NN2C(=O)C(=Cc3cc(Br)cc(Br)c3O)SC2=S)cc(OC)c1OC [Compound 37, 2-{[5-(3,5-Dibromo-2-hydroxybenzylidene)-4-oxo-2-thioxo-1,3-thiazolidin-3-yl]amino}-2-thioxo-N-(3,4,5-trimethoxyphenyl)acetamide] | 33 ± 7 | 35 ± 6 | > 100 | 221 to 222 |  | 
6 | COc1cc(NC(=O)C(=S)NN2C(=O)C(=Cc3cc(I)cc(I)c3O)SC2=S)cc(OC)c1OC [Compound 39, 2-{[5-(2-Hydroxy-3,5-diiodobenzylidene)-4-oxo-2-thioxo-1,3-thiazolidin-3-yl]amino}-N-(3,4,5-trimethoxyphenyl)-2-thioxoacetamide] | 47 ± 20 | 31 ± 16 | > 100 | 235 to 236 |  | 10
7 | O=C(Nc1ccc(O)cc1)C(=S)NN1C(=O)C(=Cc2cc(Cl)ccc2O)SC1=S [Compound 41, 2-{[5-(5-Chloro-2-hydroxybenzylidene)-4-oxo-2-thioxo-1,3-thiazolidin-3-yl]amino}-N-(4-hydroxy-phenyl)-2-thioxoacetamide] | > 100 | 67 | > 100 | 220 to 221 |  | 
8 | O=C(Nc1ccc(O)cc1)C(=S)NN1C(=O)C(=Cc2cc(Br)ccc2O)SC1=S [Compound 42, 2-{[5-(5-Bromo-2-hydroxybenzylidene)-4-oxo-2-thioxo-1,3-thiazolidin-3-yl]amino}-N-(4-hydroxy-phenyl)-2-thioxoacetamide] | > 100 | > 100 | > 100 | 190 to 191 |  | 
9 | O=C(Nc1ccc(O)cc1)C(=S)NN1C(=O)C(=Cc2cccc([N+](=O)[O-])c2O)SC1=S [Compound 43, 2-{[5-(2-Hydroxy-3-nitrobenzylidene)-4-oxo-2-thioxo-1,3-thiazolidin-3-yl]amino}-N-(4-hydroxy-phenyl)-2-thioxoacetamide] | > 100 | 88 | > 100 | 179 to 180 |  | 
10 | O=C(Nc1ccc(O)cc1)C(=S)NN1C(=O)C(=Cc2cc([N+](=O)[O-])ccc2O)SC1=S [Compound 44, 2-{[5-(2-Hydroxy-5-nitrobenzylidene)-4-oxo-2-thioxo-1,3-thiazolidin-3-yl]amino}-N-(4-hydroxy-phenyl)-2-thioxoacetamide] | 53 ± 8 | 45 ± 14 | > 100 | 199 to 200 |  | 
11 | CCOc1cccc(C=C2SC(=S)N(NC(=S)C(=O)Nc3ccc(O)cc3)C2=O)c1O [Compound 45, 2-{[5-(3-Ethoxy-2-hydroxybenzylidene)-4-oxo-2-thioxo-1,3-thiazolidin-3-yl]amino}-N-(4-hydroxyphenyl)-2-thioxoacetamide] | > 100 | > 100 | > 100 | 184 to 185 |  | 
12 | C=CCc1cccc(C=C2SC(=S)N(NC(=S)C(=O)Nc3ccc(O)cc3)C2=O)c1O [Compound 46, 2-{[5-(3-Allyl-2-hydroxybenzylidene)-4-oxo-2-thioxo-1,3-thiazolidin-3-yl]amino}-N-(4-hydroxy-phenyl)-2-thioxoacetamide] | > 100 | 100 | > 100 | 153 to 154 |  | 
13 | CCN(CC)c1ccc(C=C2SC(=S)N(NC(=S)C(=O)Nc3ccc(O)cc3)C2=O)c(O)c1 [Compound 47, 2-({5-[4-(Diethylamino)-2-hydroxybenzylidene]-4-oxo-2-thioxo-1,3-thiazolidin-3-yl}amino)-N-(4-hydroxyphenyl)-2-thioxoacetamide] | > 100 | > 100 | > 100 | 206 to 207 |  | 
14 | O=C(Nc1ccc(O)cc1)C(=S)NN1C(=O)C(=Cc2ccc(O)c(C(=O)O)c2)SC1=S [Compound 49, 2-Hydroxy-5-{[3-({2-[(4-hydroxyphenyl)amino]-2-oxoethanethioyl}amino)-4-oxo-2-thioxo-1,3-thiazolidin-5-ylidene]methyl}benzoic acid] | 80 | 45 | > 100 | 223 to 224 |  | 
